Source: ChEMBL document CHEMBL1201862, “PubChem BioAssay data set” (2004)
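A five-concentration, 48-hour dose response in 96-well plates underlies each endpoint, interpolated linearly between surrounding concentrations. GI50 marks 50% less growth.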 The source made the active and inactive calls. Rule as the data show it: active = GI50 up to about 1.1 µM and inactive = higher.

Columns and labels:
Assay in all cases: DTP human tumour cell line panel, 48 h
[1] = test system: 786-0
[2] = test system: SF-268
[3] = test system: HT-29
[4] = test system: Malme-3M
[5] = test system: A549
[6] = test system: HCT-15
[7] = test system: COLO 205
[8] = test system: ACHN
[9] = test system: SF-539
[10] = test system: EKVX
[11] = test system: SK-MEL-5
[12] = test system: KM12
[13] = test system: NCI-H23
[14] = test system: NCI-H460
[15] = test system: NCI-H226

| Structure (SMILES) | GI50 [1] | GI50 [2] | GI50 [3] | GI50 [4] | GI50 [5] | GI50 [6] | GI50 [7] | GI50 [8] | GI50 [9] | GI50 [10] | GI50 [11] | GI50 [12] | GI50 [13] | GI50 [14] | GI50 [15] |
| --- | --- | --- | --- | --- | --- | --- | --- | --- | --- | --- | --- | --- | --- | --- | --- |
| Cc1c(C(Cc2ccccc2N(C)C(=O)/C=C\C(=O)O)c2c[nH]c3ccccc23)c2ccccc2n1C (centres undefined) | 16.4 µM (inactive) | 20.6 µM (inactive) | 15.5 µM (inactive) | 6.14 µM (inactive) | 16.6 µM (inactive) | 14.3 µM | 14.5 µM (inactive) | 17.1 µM (inactive) | 16.6 µM (inactive) | 16.3 µM (inactive) | 14.9 µM (inactive) | 15.6 µM (inactive) | 16.8 µM (inactive) | 15.3 µM (inactive) | 19.3 µM (inactive) |
| Nc1ccc2c(c1)Oc1c(F)c(F)cc3c(=O)c(C(=O)O)cn-2c13 | 28.1 µM (inactive) | > 10 µM (inactive) | 35.2 µM (inactive) | 45.9 µM (inactive) | 32.9 µM (inactive) | 46.2 µM | 45 µM (inactive) |  | 39.2 µM (inactive) | > 100 µM (inactive) | 17.1 µM (inactive) | 23.6 µM (inactive) | 64.1 µM (inactive) |  |  |
| Clc1ccc(C2=NOC3C4CCC(C4)C23)cc1 (centres undefined) | > 100 µM (inactive) | > 100 µM (inactive) | > 100 µM (inactive) | > 100 µM (inactive) | > 100 µM (inactive) | > 100 µM | > 100 µM (inactive) | > 100 µM (inactive) | > 100 µM (inactive) | > 100 µM (inactive) | > 100 µM (inactive) | > 100 µM (inactive) | > 100 µM (inactive) | > 100 µM (inactive) | > 100 µM (inactive) |
| Clc1ccccc1C1=NN(c2ccccc2)C2c3ccccc3OCC12 (centres undefined) | 74.5 µM (inactive) | > 100 µM (inactive) | 58.5 µM (inactive) | > 100 µM (inactive) | > 100 µM (inactive) |  | > 100 µM (inactive) | > 100 µM (inactive) |  | > 100 µM (inactive) | 79.6 µM (inactive) | > 100 µM (inactive) | > 100 µM (inactive) | > 100 µM (inactive) |  |
| COC1=CC(=C(C#N)/C(=N\c2ccccc2)SC)C=C(OC)C1=O | 31.6 µM (inactive) |  | > 100 µM (inactive) | > 100 µM (inactive) | 78.9 µM (inactive) | 80.7 µM | > 100 µM (inactive) | 40.8 µM (inactive) | > 100 µM (inactive) | > 100 µM (inactive) | 20.7 µM (inactive) | 63.2 µM (inactive) | 54.5 µM (inactive) | 70.6 µM (inactive) |  |
| CCOC(=O)/C=C1/Oc2ccccc2C1(C)O (centres undefined) | > 100 µM (inactive) | > 100 µM (inactive) | > 100 µM (inactive) | > 100 µM (inactive) | > 100 µM (inactive) | > 100 µM | > 100 µM (inactive) | > 100 µM (inactive) |  | > 100 µM (inactive) | > 100 µM (inactive) | > 100 µM (inactive) | > 100 µM (inactive) | > 100 µM (inactive) | > 100 µM (inactive) |
| Cc1cc2c(cc1C)[n+]([O-])c(C(=O)/C=C/c1ccc(Cl)cc1)c(C)[n+]2[O-] | 18.9 µM (inactive) | > 10 µM (inactive) | 30.3 µM (inactive) | 38.5 µM (inactive) | 28.2 µM (inactive) | 33 µM | 20.5 µM (inactive) | 25.5 µM (inactive) | 20.5 µM (inactive) | 55 µM (inactive) | 23.7 µM (inactive) | 33.7 µM (inactive) | 20.7 µM (inactive) | 25.9 µM (inactive) | > 100 µM (inactive) |
| CCc1ccccc1NC(=O)C(=O)CC(=O)c1sc(Nc2ccccc2)nc1C | > 100 µM (inactive) | > 100 µM (inactive) | > 100 µM (inactive) | > 100 µM (inactive) | > 100 µM (inactive) | > 100 µM | > 100 µM (inactive) | > 100 µM (inactive) | > 100 µM (inactive) | 29.4 µM (inactive) | > 100 µM (inactive) | > 100 µM (inactive) | > 100 µM (inactive) | > 100 µM (inactive) | > 100 µM (inactive) |
| NC(Cc1ccccc1)C(=O)OCN1C(=O)C2C3C=CC(C2C1=O)C1C2C(=O)N(COC(=O)C(N)Cc4ccccc4)C(=O)C2C31 (centres undefined) | 20.7 µM (inactive) | 17.4 µM (inactive) | 31.8 µM (inactive) |  | 23.2 µM (inactive) | 17.6 µM | 17.9 µM (inactive) | 26.5 µM (inactive) | 22.5 µM (inactive) |  | 18.2 µM (inactive) | 20.7 µM (inactive) | 19.9 µM (inactive) | 16.3 µM (inactive) | 27.7 µM (inactive) |
| [N-]=[N+]=NC1CC(n2cc(COCC(F)(F)F)c(=O)[nH]c2=O)OC1CO (centres undefined) | > 100 µM (inactive) | > 100 µM (inactive) | > 100 µM (inactive) | > 100 µM (inactive) | > 100 µM (inactive) |  | > 100 µM (inactive) | > 100 µM (inactive) | > 100 µM (inactive) | > 100 µM (inactive) | > 100 µM (inactive) | > 100 µM (inactive) | > 100 µM (inactive) | > 100 µM (inactive) |  |
| O=CCCn1[nH]c(=O)ccc1=O | > 100 µM (inactive) | > 100 µM (inactive) | > 100 µM (inactive) | > 100 µM (inactive) | > 100 µM (inactive) | > 100 µM |  | > 100 µM (inactive) | > 100 µM (inactive) | > 100 µM (inactive) | > 100 µM (inactive) |  | > 100 µM (inactive) | > 100 µM (inactive) | > 100 µM (inactive) |
| C=C1c2[nH]c3ccccc3c2CC(C(=O)O)N1C(O)c1ccc(S(=O)(=O)O)cc1 (centres undefined) | > 100 µM (inactive) | > 100 µM (inactive) | > 100 µM (inactive) | > 100 µM (inactive) | > 100 µM (inactive) |  |  | > 100 µM (inactive) | > 100 µM (inactive) |  | > 100 µM (inactive) | > 100 µM (inactive) | > 100 µM (inactive) | > 100 µM (inactive) | 42.9 µM (inactive) |
| C=CCCCN1CCCC(C)C1=S (centres undefined) | > 100 µM (inactive) | > 100 µM (inactive) | > 100 µM (inactive) | > 100 µM (inactive) | > 100 µM (inactive) | > 100 µM | > 100 µM (inactive) | > 100 µM (inactive) | > 100 µM (inactive) | > 100 µM (inactive) | > 100 µM (inactive) | > 100 µM (inactive) | > 100 µM (inactive) | > 100 µM (inactive) | > 100 µM (inactive) |
| CN(C)CCCNC(=O)N/N=C/c1cccc([N+](=O)[O-])c1 | > 100 µM (inactive) | > 100 µM (inactive) | > 100 µM (inactive) | > 100 µM (inactive) | > 100 µM (inactive) | > 100 µM |  | > 100 µM (inactive) | > 100 µM (inactive) |  | > 100 µM (inactive) | > 100 µM (inactive) | > 100 µM (inactive) | > 100 µM (inactive) | > 100 µM (inactive) |
| NC(=O)N1N=C2c3ccccc3SC[C@H]2[C@@H]1c1ccccc1 | 29 µM (inactive) | 33.3 µM (inactive) | 19.7 µM (inactive) | 26.9 µM (inactive) | 37.3 µM (inactive) | 23.9 µM | 20.7 µM (inactive) | 33.3 µM (inactive) |  | 35 µM (inactive) | 8.07 µM (inactive) | > 10 µM (inactive) | 35.6 µM (inactive) | 19.1 µM (inactive) | 22.2 µM (inactive) |
| COC(=O)C(=O)C(CC(=O)Nc1ccc(C)cc1)C(=O)OC (centres undefined) | > 100 µM (inactive) | > 100 µM (inactive) | > 100 µM (inactive) | > 100 µM (inactive) | > 100 µM (inactive) | > 100 µM |  | > 100 µM (inactive) | > 100 µM (inactive) | > 100 µM (inactive) | > 100 µM (inactive) | > 100 µM (inactive) | > 100 µM (inactive) | > 100 µM (inactive) | > 100 µM (inactive) |
| Cc1ccccc1NC(=O)CC(=O)n1nc(-c2ccccc2)c(/N=N/c2ccc([N+](=O)[O-])cc2)c1-c1ccccc1 | 22.1 µM (inactive) | 21.2 µM (inactive) | 8.34 µM (inactive) | 23.8 µM (inactive) | 16.1 µM (inactive) |  | 16.8 µM (inactive) | 11.2 µM (inactive) | 19.9 µM (inactive) | 20.2 µM (inactive) | 13 µM (inactive) | 16.7 µM (inactive) | 21.3 µM (inactive) | 31.5 µM (inactive) | 14.1 µM (inactive) |
| CCCCCCCCCCCCCCCCCC(=O)NCCCNCCCNC(=O)CCCCCCCCCCCCCCCCC | > 100 µM (inactive) | > 100 µM (inactive) | > 100 µM (inactive) | > 100 µM (inactive) | > 100 µM (inactive) | > 100 µM | > 100 µM (inactive) | > 100 µM (inactive) |  |  | > 100 µM (inactive) |  | > 100 µM (inactive) | > 100 µM (inactive) | > 100 µM (inactive) |
| O/N=C1/CCCC/C1=C\c1ccc(Cl)c(Cl)c1 | 29.9 µM (inactive) | 25.1 µM (inactive) | 18.8 µM (inactive) |  | 30.1 µM (inactive) | 28.4 µM | 19.7 µM (inactive) | 28.7 µM (inactive) | 19 µM (inactive) | 23.9 µM (inactive) | 16.1 µM (inactive) |  | 28.8 µM (inactive) | 23.9 µM (inactive) |  |
| O=C1C2=C(CCCC2)Nc2cccc3ncn1c23 | > 100 µM (inactive) | > 100 µM (inactive) |  | > 100 µM (inactive) | > 100 µM (inactive) | > 100 µM | > 100 µM (inactive) | > 100 µM (inactive) | > 100 µM (inactive) | > 100 µM (inactive) | > 100 µM (inactive) | > 100 µM (inactive) | > 100 µM (inactive) | > 100 µM (inactive) |  |
